Measurements from patent publication US9648880B2, “Antifungal agents and uses thereof” (University of Massachusetts, priority 2012, dated 2017).

Assays:
C. albicans = assay: pretreatment (pre-coating) of polystyrene, then adhesion assay; type: cell-based, Candida albicans
Protocol: FIGS. 11A-11D. Compound #4 can coat surfaces and reduce subsequent fungal adhesion. […] is a graph showing the results of pretreatment of polystyrene with candidate compounds. Indicated compounds at 50 μM were incubated in polystyrene 96-well plates overnight. Wells were washed three times with 100 μl of PBS. C. albicans adhesion was then measured using the vital dye alamarBlue, with no additional drug treatment. FIG. 11B is a graph showing titration of compounds #1, 4 and 9 for pre-binding to polystyrene. Indicated concentrations of compounds were pre-incubated with polystyrene plates as above prior to the adhesion assays. FIG. 11C is a graph showing the inhibition of adhesion by pretreatment of C. albicans SC5314 cells with compound #4 prior to introduction to plastic. SC5314 cells were treated with 25 μM compound #4 or DMSO in liquid culture prior to their introduced into polystyrene plates. Cells were washed with PBS prior to resuspension into SCM and seeding into 96-well plates for adhesion assays using alamarBlue detection of remaining cells. The pretreated cells were assayed alongside a standard adhesion assay in which compound #4 and the cells were coincubated with the plastic simultaneously. FIG. 11D is a graph showing the results of an assay performed as in FIG. 11C, except that SC5314-GFP cells were used, and then detected via fluorescence measurement. edt1 indicates non-adherent mutant cells, PBS indicates background fluorescence in absence of cells.
Because compounds #4 and #9 contain a nitrophenyl group (FIG. 3A), solutions containing these appear yellow. […] To test this idea, we preincubated polystyrene plates with each of the compounds that affect adhesion to polystyrene, washed to remove unbound compound molecules, and then added C. albicans cells to measure adhesion without further addition of compound.
To distinguish the three pre-coating compounds, we then titrated them in this pre-coating assay (FIG. 11B). […] We also tested whether compound #4 could affect fungal adhesion when it was used to pre-coat C. albicans cells rather than the polystyrene surface. […] We conclude that compound #4 has the ability to make polystyrene and the C. albicans cell surface less amenable to subsequent adhesion.

[1] = test system: C. albicans hyphae formation; assay: filamentation assay (hyphal morphogenesis); type: cell-based, Candida albicans; settings: for inhibition of hyphal formation and induction of RFP: 12.5 μM, Spider media 16 hours, HWP1-RFP reporter
Description: Because the ability to interconvert between yeast and hyphal morphologies is usually correlated with pathogenicity (Finkel, 2010), we explored this observation in more detail. First, we assessed the effect of our compounds on the induction of hyphae by “Spider” media (Chauhan, 2009). For this experiment, we used a strain that contains the hyphal-specific HWP1 promoter to the Red Fluorescent Protein (RFP) open reading frame (Ganguly, 2011), which provides a molecular reporter for hyphae formation that we used in addition to visual examination of cell morphology. We initially tested each of the compounds that inhibit adhesion to polystyrene (FIG. 1B), as well as compounds #9, Q1 and Q2 (FIG. 3A), at concentration of 12.5 μM. […] Compounds Q1 and Q2 share a “Scaffold 1” backbone with compounds #4 and #9, but contain a quinoline group (FIG. 3A). Therefore, the compounds with a quinoline group can inhibit hyphae formation, but not adhesion to polystyrene or human cells (FIG. 3). […] Additionally, multiple chemical backbones are able to inhibit hyphae formation, because compound #12 has a “Scaffold 2” backbone (Table 2). To better discriminate the inhibitory compounds, we tested #4, 12 and Q1 at lower concentrations. […] Furthermore, as in the polystyrene adhesion assay (FIG. 8), compound #4 is effective at inhibiting hyphae formation at concentrations >2.5 μM.
Overnight cultures of SC5314 or SGH584 were pregrown in uridine-supplemented SC media at 30° C. to an OD600>13 and diluted 1:10 into prewarmed Spider medium (1% Peptone (Difco), 1% Mannitol (Sigma) and 0.2% K2HPO4 (Sigma) (Chauhan, 2009) in glass tubes and grown for 16 hrs at 37° C. shaking at 200 rpm in the presence or absence of drugs as indicated. DIC and fluorescence images were acquired using a Zeiss Axiovert 200 inverted microscope equipped with a Qicam 12-bit Fast 1394 digital CCD camera (Qimaging). Image acquisition was carried out using Openlab 5 software (Improvison).
Because the ability to interconvert between yeast and hyphal morphologies is usually correlated with pathogenicity, we explored this in more detail, examining induction of hyphae upon carbon starvation (using Spider media). We used a strain that contains the Red Fluorescent Protein (RFP) open reading frame driven by the hyphal-specific HWP1 promoter (Ganguly et al., Eukaryotic Cell 10:1448, 2011), which provides a molecular reporter for hyphae formation in addition to cell morphology. […] Therefore, the shared backbone of these compounds correlates with inhibition of multiple activities.
Hyphal morphogenesis is induced by multiple stimuli that act via multiple signal transduction pathways and is mediated by a complex transcriptional network. […] We detected morphological difference between control and compound #4-treated cultures as early as 60 minutes in 10% serum, and 90 minutes in Spider media.

Structure (SMILES) | subsequent adhesion of C. albicans to pre-coated polystyrene (C. albicans; 12.5 μM or below) | subsequent adhesion of C. albicans to pre-coated polystyrene (C. albicans; 25 μM) | subsequent adhesion of C. albicans to pre-coated polystyrene (C. albicans; 50 μM, overnight, washed) | hyphae formation induced by Spider media ([1]; 10 μM) | inhibition of hyphal formation and induction of RFP [1] | earliest morphological difference between control and treated cultures ([1]; 10% serum) [minutes] | hyphal response to Spider media and mammalian serum ([1]; 37° C.) | concentrations effective at inhibiting hyphae formation ([1]; Spider media) [µM] | earliest morphological difference between control and treated cultures ([1]; Spider media) [minutes] | formation of hyphae ([1]; Spider media, HWP1-RFP reporter (Example 14)) | time at which effect could be detected after Spider media addition ([1]; protein reporter assay)
Cc1ccc(C(=O)N2CCN(c3ccc([N+](=O)[O-])cc3)CC2)cc1Cl [Compound 4] | much less so | strongly inhibitory | efficiently inhibited subsequent adhesion | completely blocked the hyphae formation | most potently inhibited hyphal formation and induction of RFP | 60 | inhibited the response to both these stimuli | > 2.5 | 90 | blocked formation of hyphae | within two hours
O=C(c1ccc(Cl)c(Cl)c1)N1CCN(c2ccc([N+](=O)[O-])cc2)CC1 [Compound 9] | much less so | strongly inhibitory | efficiently inhibited subsequent adhesion |  | most potently inhibited hyphal formation and induction of RFP |  |  |  |  |  | 
